Values quoted from earlier work as cited in US20130172260A1, “PREVENTION OF INDWELLING DEVICE RELATED INFECTION: COMPOSITION AND METHODS” (priority 2003, published 2013).

Tested on: Staphylococcus epidermidis
Conditions: 5 milli Molar in a medium

O=C(O)c1ccccc1O [salicylic acid]
inhibited both growth and Biofilm production: up to 55%
